Source: patent US20190151289A1, “Identification of Small Molecule Inhibitors of Jumonji AT-Rich Interactive Domain 1A (JARID1A) Histone Demethylase” (YALE UNIVERSITY, priority 2016, published 2019)

Assays:
Assay type in all cases: cell-based, human
[1] = system: MCF10A cells; assay: WST-1 cell proliferation assay, MCF10A; conditions: 5 days of treatment
Experimental: (§1) WST-1 reagent from Roche Applied Sciences (11644807001) was used to measure cell number before drug addition and after 3 or 5 days of growth using previously described methods (Sayegh et al., 2013, J. Biol. Chem. 9408-9417). Cells were seeded in 96-well plates at the following number of cells per well: HeLa (2000), MCF7 (2000), ZR-75-1 (1000), MCF10A (1000), MDA-MB-231(5000). Assays were performed in technical quadruplicates and biological triplicates. DMSO was used at 0.1%. Relative absorbance was calculated by subtracting the average background (media only) signal, dividing by the average signal on day 0, and then dividing by the average day 5/day 0 ratio for the DMSO controls. Significance was calculated by unpaired, two-tailed student's t-test using GraphPad Prism 6.0 software.

[2] = system: PC9 cells; assay: Colony formation assay, PC9 (gefitinib tolerance)
Experimental: (§2) Cells were seeded in 6-well plates at low density: HeLa, MCF7, BT474, and PC9 cells at 1000, 2000, 2500, and 2000 cells/well respectively. Media containing the prescribed drugs or 0.1% DMSO was replaced every 3 days. Trastuzumab was used at 5 μg/ml. Gefitinib was used at 2 μM. YUKA1 was used at 50 or 100 μM. Doxycycline was used at 1 μg/ml for 3 days. After 7-42 days depending on the rate of cell growth, cells were fixed in 4% para-formaldehyde in phosphate-buffered saline for 10 minutes rocking at room temperature. They were incubated in 0.05% crystal violet in double-distilled water for 30 minutes rocking at room temperature, washed with water, and dried 24 hours before photographing. ColonyArea, a plugin for ImageJ software, was used for quantification (Guzman et al., 2014, PloS One 9:e92444). Unpaired, two-tailed student's t-test was used to determine significance using GraphPad Prism 6.0 software.

[3] = system: H3K4 methylation in HeLa cells; assay: Western blot of global H3K4 methylation, HeLa
Experimental: (§3) Sf21 insect cells were cultured at 27° C. in Grace's medium (Gibco) with 10% fetal bovine serum (FBS) and 1% penicillin/streptomycin. HeLa cells were cultured in DMEM (Gibco) with 10% FBS and 1% penicillin/streptomycin. BT474, MCF7, MDA-MB-231, PC9 and ZR-75-1 cells were cultured in RPMI 1640 (Gibco) with 10% FBS and 1% penicillin/streptomycin. MCF10A cells were cultured as using previously described methods (Sayegh et al., 2013, J. Biol. Chem. 9408-9417). All human cells were cultured at 37° C. and 5% carbon dioxide. HeLa and MCF7 cell lines were authenticated using short tandem repeat profiling performed at the DNA Analysis Facility on Science Hill at Yale University. All other human cell lines used were within 10 passages after being obtained from the American Type Culture Collection.
Cells were lysed using previously described methods (Lin et al., 2011, Proc. Natl. Acad. Sci. U.S.A. 108:13379-13386). Histones were separated by centrifugation, resuspended in Laemmeli buffer, and sonicated. Protein concentration of cell lysates was measured by Bradford assay. Samples in Laemmeli buffer were boiled 10 minutes at 95° C. and loaded onto 7% (whole cell lysates) or 18% (histones) SDS-PAGE gels. Membranes were blocked in 4% non-fat milk in Tris-buffered saline with 0.05% Tween (TBS-T) and incubated with primary antibodies in the same buffer or 5% bovine serum albumin in TBS-T overnight at 4° C. Membranes were incubated with secondary anti-rabbit or anti-mouse antibodies for one hour at room temperature. Blots were visualized by Thermo Scientific Pierce ECL Western Blotting Substrate (32106) or EMD Millipore Immobilon Western Chemiluminescent HRP Substrate (WBKLS0100) on film. Signal was quantified using ImageJ software.

[4] = system: H3K4 methylation in ZR-75-1 cells; assay: Western blot of global H3K4 methylation, ZR-75-1; conditions: ZR-75-1, 48 hour treatment
Experimental: as §3
(§4) Cells were lysed using previously described methods (Lin et al., 2011, Proc. Natl. Acad. Sci. U.S.A. 108:13379-13386). Histones were separated by centrifugation, resuspended in Laemmeli buffer, and sonicated. Protein concentration of cell lysates was measured by Bradford assay. Samples in Laemmeli buffer were boiled 10 minutes at 95° C. and loaded onto 7% (whole cell lysates) or 18% (histones) SDS-PAGE gels. […] Signal was quantified using ImageJ software.

[5] = system: H3K4 methylation in MDA-MB-231 cells; assay: Western blot of global H3K4 methylation, MDA-MB-231; conditions: MDA-MB-231, 72 hr treatment
Experimental: as §3, §4

[6] = system: H3K4 methylation in MCF10A cells; assay: Western blot of global H3K4 methylation, MCF10A; conditions: 72 hr treatment
Experimental: as §3, §4

[7] = system: HeLa cells; assay: WST-1 cell proliferation assay, HeLa; conditions: after 3 days
Experimental: as §1

[8] = system: MDA-MB231 cells; assay: Colony formation assay, MDA-MB231; conditions: 5 μM KDMS-C70 or 50 or 100 μM YUKA1
Experimental: as §2
HeLa (FIG. 11A) and MDA-MB231 cells (FIG. 11B) were treated with DMSO, 5 μM KDMS-C70 or 50 or 100 μM YUKA1 in colony-formation assays. The tables in FIGS. 11C and 11D depict the quantification of experimental data.

C=CCOc1c(CNn2cnnc2S)cccc1OC [YUKA1, 4-([2-(allyloxy)-3-methoxybenzyl]amino)-4H-1,2,4-triazole-3-thiol]
cell proliferation [1]: did not hinder cell proliferation | cell growth, compound alone ([2]; PC9, compound alone): not significantly affected | colony formation under gefitinib vs DMSO control ([2]; PC9, long-term treatment with 2 μM gefitinib plus compound): fewer YUKA1-treated cells formed colonies | H3K4me2 and H3K4me1 levels ([3]; HeLa): increased | cell activity by global H3K4 methylation changes ([3]; HeLa and MCF7 cell lines, western blot): cell-active | global H3K4me3 levels ([3]; HeLa, 48 hour treatment): dose-dependent increase | global H3K4me3 levels [4]: increased global H3K4me3 levels | H3K4 methylation [5]: only minor changes | H3K4 methylation levels [6]: did not affect H3K4 methylation levels | cell proliferation relative to DMSO [7]: less than half of DMSO-treated cells | growth in colony-formation assay [8]: suppresses growth
